Measurements published in ChEMBL document CHEMBL1135887, “Substituted pentacyclic carbazolones as novel muscarinic allosteric agents: synthesis and structure-affinity and cooperativity relationships” (J Med Chem, 2002).

Key:
[1] = target: T1, Muscarinic acetylcholine receptor M1 (Homo sapiens) (UniProt P11229); test: Subtype selectivity and the cooperativity with N-methyl Scopolamine (NMS) at Muscarinic acetylcholine receptor M1; Activity range is 0.2-0.8
T1 sequence (whole entry): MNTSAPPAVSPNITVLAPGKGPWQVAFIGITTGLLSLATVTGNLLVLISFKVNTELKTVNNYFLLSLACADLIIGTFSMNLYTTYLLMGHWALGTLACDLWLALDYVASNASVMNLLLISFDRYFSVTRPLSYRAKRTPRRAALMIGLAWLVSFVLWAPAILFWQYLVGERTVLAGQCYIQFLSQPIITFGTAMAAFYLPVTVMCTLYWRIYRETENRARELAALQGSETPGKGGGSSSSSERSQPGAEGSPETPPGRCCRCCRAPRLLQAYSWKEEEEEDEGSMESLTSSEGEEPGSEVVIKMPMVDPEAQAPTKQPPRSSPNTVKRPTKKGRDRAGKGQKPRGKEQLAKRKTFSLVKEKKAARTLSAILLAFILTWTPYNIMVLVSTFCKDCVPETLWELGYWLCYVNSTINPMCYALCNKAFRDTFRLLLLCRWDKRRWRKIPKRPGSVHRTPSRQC

[2] = target: T1, Muscarinic acetylcholine receptor M1 (Homo sapiens); test: Logarithm of affinity (log 1/M) at the (N-methyl Scopolamine) NMS-liganded muscarinic acetylcholine receptor M1 by using semiquantitative equilibrium and off-rate assay
[3] = target: T2, Muscarinic acetylcholine receptor M4 (Homo sapiens) (UniProt P08173); test: Logarithm of affinity (log 1/M) at the muscarinic acetylcholine receptor M4 by using semiquantitative equilibrium and off-rate assay
T2 sequence (whole entry): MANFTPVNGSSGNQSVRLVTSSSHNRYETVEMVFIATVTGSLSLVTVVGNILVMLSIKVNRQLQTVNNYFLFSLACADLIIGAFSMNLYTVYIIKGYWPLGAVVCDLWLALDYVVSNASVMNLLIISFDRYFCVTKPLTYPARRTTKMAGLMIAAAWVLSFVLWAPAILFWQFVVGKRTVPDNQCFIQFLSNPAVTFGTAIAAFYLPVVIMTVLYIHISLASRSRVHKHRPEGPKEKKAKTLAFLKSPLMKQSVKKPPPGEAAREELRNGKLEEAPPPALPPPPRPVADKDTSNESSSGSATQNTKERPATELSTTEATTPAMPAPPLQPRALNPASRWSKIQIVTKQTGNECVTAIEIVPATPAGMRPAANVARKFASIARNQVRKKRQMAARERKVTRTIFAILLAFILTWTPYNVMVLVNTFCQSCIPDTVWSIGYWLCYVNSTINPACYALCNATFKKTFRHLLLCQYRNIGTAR

[4] = target: Muscarinic acetylcholine receptor M3 (Homo sapiens) (UniProt P20309); test: Subtype selectivity and the cooperativity with N-methyl Scopolamine (NMS) at muscarinic acetylcholine receptor M3; Activity range is 0.2-0.8
[5] = target: T2, Muscarinic acetylcholine receptor M4 (Homo sapiens); test: Subtype selectivity and cooperativity with N-methyl Scopolamine (NMS) at Muscarinic acetylcholine receptor M4; Activity range is 1.2-3
[6] = target: Muscarinic acetylcholine receptor M3 (Homo sapiens) (UniProt P20309); test: Logarithm of affinity (log 1/M) at the muscarinic acetylcholine receptor M3 by using semiquantitative equilibrium and off-rate assay
[7] = target: T3, Muscarinic acetylcholine receptor M2 (Homo sapiens) (UniProt P08172); test: Logarithm of affinity (log 1/M) at the muscarinic acetylcholine receptor M2 by using semiquantitative equilibrium and off-rate assay
T3 sequence (whole entry): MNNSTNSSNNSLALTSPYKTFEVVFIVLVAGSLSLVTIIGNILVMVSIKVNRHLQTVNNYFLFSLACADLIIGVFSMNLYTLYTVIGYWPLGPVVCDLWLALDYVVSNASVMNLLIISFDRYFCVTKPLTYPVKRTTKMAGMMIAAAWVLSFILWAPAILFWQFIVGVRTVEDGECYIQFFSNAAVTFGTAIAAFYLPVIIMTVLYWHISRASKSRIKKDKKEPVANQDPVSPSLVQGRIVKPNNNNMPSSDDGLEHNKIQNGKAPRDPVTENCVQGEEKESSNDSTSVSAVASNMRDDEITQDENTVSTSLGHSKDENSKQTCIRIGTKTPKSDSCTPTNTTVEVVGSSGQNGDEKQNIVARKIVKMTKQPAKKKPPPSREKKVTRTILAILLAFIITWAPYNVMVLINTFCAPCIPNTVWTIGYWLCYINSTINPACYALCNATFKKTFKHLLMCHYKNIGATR

[8] = target: T2, Muscarinic acetylcholine receptor M4 (Homo sapiens); test: Logarithm of affinity (log 1/M) at the (N-methyl Scopolamine) NMS-liganded muscarinic acetylcholine receptor M4 by using semiquantitative equilibrium and off-rate assay
[9] = target: Muscarinic acetylcholine receptor M3 (Homo sapiens) (UniProt P20309); test: Logarithm of affinity (log 1/M) at the (N-methyl Scopolamine) NMS-liganded muscarinic acetylcholine receptor M3 by using semiquantitative equilibrium and off-rate assay
[10] = target: T3, Muscarinic acetylcholine receptor M2 (Homo sapiens); test: Logarithm of affinity (log 1/M) at the (N-methyl Scopolamine) NMS-liganded muscarinic acetylcholine receptor M2 by using semiquantitative equilibrium and off-rate assay
[11] = target: T1, Muscarinic acetylcholine receptor M1 (Homo sapiens); test: Logarithm of affinity (log 1/M) at the free muscarinic acetylcholine receptor M1 by using semiquantitative equilibrium and off-rate assay
[12] = target: T3, Muscarinic acetylcholine receptor M2 (Homo sapiens); test: Subtype selectivity and the cooperativity with N-methyl Scopolamine (NMS) at Muscarinic acetylcholine receptor M2; Activity range is 1.2-3
[13] = target: T2, Muscarinic acetylcholine receptor M4 (Homo sapiens); test: Subtype selectivity and the cooperativity with N-methyl Scopolamine (NMS) at Muscarinic acetylcholine receptor M4; Activity range is 0.81-1.19
[14] = target: T2, Muscarinic acetylcholine receptor M4 (Homo sapiens); test: Subtype selectivity and the cooperativity with N-methyl Scopolamine (NMS) at Muscarinic acetylcholine receptor M4; Activity range is 0.2-0.8
[15] = target: T1, Muscarinic acetylcholine receptor M1 (Homo sapiens); test: Subtype selectivity and the cooperativity with N-methyl Scopolamine (NMS) at Muscarinic acetylcholine receptor M1; Activity range is 1.2-3
[16] = target: Muscarinic acetylcholine receptor M3 (Homo sapiens) (UniProt P20309); test: Subtype selectivity and the cooperativity with N-methyl Scopolamine (NMS) at Muscarinic acetylcholine receptor M3; […]
[17] = target: T2, Muscarinic acetylcholine receptor M4 (Homo sapiens); test: Subtype selectivity and the cooperativity with N-methyl Scopolamine (NMS) at Muscarinic acetylcholine receptor M4
[18] = target: T1, Muscarinic acetylcholine receptor M1 (Homo sapiens); test: Subtype selectivity and the cooperativity with N-methyl Scopolamine (NMS) at Muscarinic acetylcholine receptor M1
[19] = target: T3, Muscarinic acetylcholine receptor M2 (Homo sapiens); test: Subtype selectivity and the cooperativity with N-methyl Scopolamine (NMS) at Muscarinic acetylcholine receptor M2

Muscarinic acetylcholine receptor M3 (Homo sapiens), sequence (P20309 whole entry, looked up): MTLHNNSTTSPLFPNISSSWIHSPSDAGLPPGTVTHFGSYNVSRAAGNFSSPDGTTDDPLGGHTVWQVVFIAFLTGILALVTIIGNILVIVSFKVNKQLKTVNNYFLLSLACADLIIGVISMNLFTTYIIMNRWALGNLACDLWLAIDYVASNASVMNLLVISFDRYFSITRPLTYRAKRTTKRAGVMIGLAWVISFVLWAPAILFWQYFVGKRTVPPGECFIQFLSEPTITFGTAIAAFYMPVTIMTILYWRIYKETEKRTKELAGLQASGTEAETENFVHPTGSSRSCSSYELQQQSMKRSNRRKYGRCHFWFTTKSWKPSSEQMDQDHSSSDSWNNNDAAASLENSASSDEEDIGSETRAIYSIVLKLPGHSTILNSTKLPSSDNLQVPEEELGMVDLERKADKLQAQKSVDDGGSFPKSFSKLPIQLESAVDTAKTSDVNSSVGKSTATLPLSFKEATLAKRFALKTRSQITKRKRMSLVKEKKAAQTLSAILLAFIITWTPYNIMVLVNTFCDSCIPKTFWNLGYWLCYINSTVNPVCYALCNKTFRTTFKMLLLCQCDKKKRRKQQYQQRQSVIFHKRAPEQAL

| Cooperativity [1] | Log 1/M [2] | Log 1/M [3] | Cooperativity [4] | Cooperativity [5] | Log 1/M [6] | Log 1/M [7] | Log 1/M [8] | Log 1/M [9] | Log 1/M [10] | Log 1/M [11] | Cooperativity [12] | Cooperativity [13] | Cooperativity [14] | Cooperativity [15] | Cooperativity [16] | Cooperativity [17] | Cooperativity [18] | Cooperativity [19] | Structure (SMILES) |
| --- | --- | --- | --- | --- | --- | --- | --- | --- | --- | --- | --- | --- | --- | --- | --- | --- | --- | --- | --- |
| 0.8 | 5.7 | 5.31 | 0.8 | 3 | 5.78 | 5.51 | 5.48 | 4.69 | 5.57 | 5.85 | 3 | – | – | – | – | – | – | – | O=C1CCc2cc3c(c4c5ccccc5n1c24)CNCC3 |
| 0.8 | 5.35 | 6.12 | 0.8 | – | 4.56 | 5.53 | 5.35 | 3.93 | 5.79 | 5.47 | 3 | 1.19 | – | – | – | – | – | – | O=C1CCc2cc3c(c4c5cc(CN6CCOCC6)ccc5n1c24)CCNC3 |
| 0.8 | 6.05 | 5.86 | 0.8 | 3 | 5.11 | 6.22 | 5.96 | 4.9 | 6.37 | 5.97 | 3 | – | – | – | – | – | – | – | COC(=O)c1c2c(c3c4cc(OC)c(OC)cc4n4c3c1CCC4=O)CCNC2 |
| 0.8 | 5.23 | 5.6 | 0.8 | – | 5.04 | 5.96 | 5.57 | 4.54 | 6.15 | 5.78 | 3 | 1.19 | – | – | – | – | – | – | COc1ccc2c(c1)c1c3c(cc4c1n2C(=O)CC4)CNCC3 |
| 0.8 | 5.07 | 5.97 | 0.8 | 3 | 5.06 | 5.19 | 5.11 | 4.75 | 5.55 | 5.4 | 3 | – | – | – | – | – | – | – | COc1cccc2c3c4c(cc5c3n(c12)C(=O)CC5)CNCC4 |
| 0.8 | 5.54 | 5.94 | 0.8 | – | 4.92 | 6.21 | 5.79 | 4.83 | 6.16 | 6.65 | 3 | 1.19 | – | – | – | – | – | – | COc1cccc2c1c1c3c(cc4c1n2C(=O)CC4(C)C)CNCC3 |
| 0.8 | 5.69 | 6.26 | 0.8 | 3 | 5.71 | 6.09 | 5.97 | 5.08 | 6.47 | 5.9 | 3 | – | – | – | – | – | – | – | Cc1ccc2c(c1)c1c3c(cc4c1n2C(=O)CC4)CNCC3 |
| 0.8 | 5.38 | 5.43 | 0.8 | – | 5.06 | 5.36 | 5.25 | 4.37 | 5.67 | 5.49 | 3 | – | 0.8 | – | – | – | – | – | O=C1CCc2cc3c(c4c5cccc(O)c5n1c24)CCNC3 |
| – | 5.49 | 4.99 | 0.8 | 3 | 4.88 | 5.31 | 5.37 | 4.64 | 5.49 | 5.49 | 3 | – | – | 3 | – | – | – | – | O=C1CCc2cc3c(c4c5ccccc5n1c24)CCNC3 |
| 0.8 | 5.62 | 5.38 | – | 3 | 5.23 | 5.24 | 5.36 | 5.29 | 5.34 | 6.01 | 3 | – | – | – | 1.19 | – | – | – | O=C1CCc2cc3c(c4c5ccc(O)cc5n1c24)CCNC3 |
| – | 6.51 | 5.61 | – | – | 5.39 | 6.46 | 6.47 | 5.48 | 6.81 | 6.06 | 3 | – | – | 3 | 1.19 | > 3 | – | – | O=C1CCc2cc3c(c4c5ccc(Cl)cc5n1c24)CCNC3 |
| – | 5.69 | 5.42 | 0.8 | 3 | 4.86 | 5.69 | 5.8 | 4.56 | 5.87 | 5.6 | 3 | – | – | 3 | – | – | – | – | CC1(C)CC(=O)n2c3ccccc3c3c4c(cc1c32)CCNC4 |
| – | 6.11 | 5.6 | – | – | 5.43 | 5.99 | 6.13 | 5.27 | 6.28 | 5.84 | – | – | – | – | 1.19 | > 3 | > 3 | > 3 | O=C1CCc2cc3c(c4c5c(O)cccc5n1c24)CCNC3 |
| – | 6.58 | 6.26 | – | 3 | 5.92 | 6.6 | 6.66 | 6.05 | 7.12 | 6.24 | – | – | – | 3 | 1.19 | – | – | > 3 | O=C1CCc2cc3c(c4c5c(Cl)cccc5n1c24)CCNC3 |
| – | 6.07 | 4.64 | 0.8 | 3 | 5.33 | 5.9 | 6.14 | 5.2 | 6.35 | 5.84 | 3 | – | – | 3 | – | – | – | – | COc1ccc2c3c4c(cc5c3n(c2c1)C(=O)CC5)CNCC4 |
| 0.8 | 4.57 | 5.39 | 0.8 | – | 4.51 | 5.31 | 5.32 | 3.94 | 5.6 | 5.43 | – | – | – | – | – | > 3 | – | > 3 | O=C(O)c1ccc2c(c1)c1c3c(cc4c1n2C(=O)CC4)CNCC3 |
| 0.8 | 5.34 | 5.6 | 0.8 | – | 4.98 | 5.5 | 5.58 | 4.78 | 5.82 | 5.47 | 3 | – | 0.8 | – | – | – | – | – | COC(=O)c1cccc2c1c1c3c(cc4c1n2C(=O)CC4)CNCC3 |
